Assay results as given in patent US11458123B2 (Arvinas, Inc., priority 2016, dated 2022).

The compounds below were run on tau protein (assay: Tau protein in vitro degradation assay (Western blot, Tau-13 antibody)). Conditions: SK-N-SH cells; 72 hours of incubation; tested at 300 nM, 100 nM, 33 nM and 11 nM; Western blot, Tau-13 antibody.
Type: cell-based, human
Procedure, shortened: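 SK-N-SH cells, seeded ≥18 h beforehand, were incubated 72 h with tau PROTACs at 1000, 300 and 100 nM or at 300, 100, 33 and 11 nM. Lysates in protease-inhibitor buffer were resolved by SDS-PAGE; tau quantified by Western blot with Tau-13 antibody recognising all human tau forms.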
In the case of Cn1c2ccncc2c2ccc(-c3ccc(OCCCOc4ccc(CCCOC5CN(c6ccc7c(c6)C(=O)N(C6CCC(=O)NC6=O)C7=O)C5)nc4)nc3)cc21 (centres unmarked) [Compound 168, 2-(2,6-dioxopiperidin-3-yl)-5-(3-(3-(5-(3-((5-(5-methyl-5H-pyrido[4,3-b]indol-7-yl)pyridin-2-yl)oxy)propoxy)pyridin-2-yl)propoxy)azetidin-1-yl)isoindoline-1,3-dione], the “Degradation activity* (highest amount of degradation observed at any dosage; tau protein remaining)” value is reported as “B (≤80% and >50% tau protein remaining after 72 hours of incubation with the test compound)”. For Cn1c2ccncc2c2ccc(-c3ccc(O[C@H]4C[C@H](OCC5(COCCCOC6CN(c7ccc8c(c7)C(=O)N(C7CCC(=O)NC7=O)C8=O)C6)COC5)C4)nc3)cc21 (some centres unmarked) [Compound 169, 2-(2,6-dioxopiperidin-3-yl)-5-(3-(3-((3-(((1r,3r)-3-((5-(5-methyl-5H-pyrido[4,3-b]indol-7-yl)pyridin-2-yl)oxy)cyclobutoxy)methyl)oxetan-3-yl)methoxy)propoxy)azetidin-1-yl)isoindoline-1,3-dione], the “Degradation activity* (highest amount of degradation observed at any dosage; tau protein remaining)” value was “A (≤50% tau protein remaining after 72 hours of incubation with the test compound)”. Cn1c2ccncc2c2ccc(-c3ccc(O[C@H]4C[C@@H](OCCCOCCCOC5CN(c6ccc7c(c6)C(=O)N(C6CCC(=O)NC6=O)C7=O)C5)C4)nc3)cc21 (some centres unmarked) [Compound 170, 2-(2,6-dioxopiperidin-3-yl)-5-(3-(3-(3-((1 s,3 s)-3-((5-(5-methyl-5H-pyrido[4,3-b]indol-7-yl)pyridin-2-yl)oxy)cyclobutoxy)propoxy)propoxy)azetidin-1-yl)isoindoline-1,3-dione] was tested, and the “Degradation activity (tau protein remaining; highest amount of degradation observed at any dosage)” value was “A (≤50% tau protein remaining after 72 hours of incubation with the test compound)”. With Cn1c2ccncc2c2ccc(-c3ccc(O[C@H]4C[C@H](OC5CCN(CC(F)(F)CCCOc6ccc7c(c6)C(=O)N(C6CCC(=O)NC6=O)C7=O)CC5)C4)nc3)cc21 (some centres unmarked) [Compound 171, 5-((4,4-difluoro-5-(4-((1r,3r)-3-((5-(5-methyl-5H-pyrido[4,3-b]indol-7-yl)pyridin-2-yl)oxy)cyclobutoxy)piperidin-1-yl)pentyl)oxy)-2-(2,6-dioxopiperidin-3-yl)isoindoline-1,3-dione] the “Degradation activity (tau protein remaining; highest amount of degradation observed at any dosage)” value was “C (>80% tau protein remaining after 72 hours of incubation with the test compound)”. With O=C1CCC(N2C(=O)c3ccc(OCCCCC#Cc4ccc(O[C@H]5C[C@H](Oc6ccc(-c7ccc8c(c7)[nH]c7ccncc78)cn6)C5)cn4)cc3C2=O)C(=O)N1 (some centres unmarked) [Compound 172, 5-((6-(5-((1r,3r)-3-((5-(5H-pyrido[4,3-b]indol-7-yl)pyridin-2-yl)oxy)cyclobutoxy)pyridin-2-yl)hex-5-yn-1-yl)oxy)-2-(2,6-dioxopiperidin-3-yl)isoindoline-1,3-dione] the “Degradation activity (tau protein remaining; highest amount of degradation observed at any dosage)” value was “C (>80% tau protein remaining after 72 hours of incubation with the test compound)”. In the case of O=C1CCC(N2C(=O)c3ccc(OCCOCC#Cc4ccc(O[C@H]5C[C@H](Oc6ccc(-c7ccc8c(c7)[nH]c7ccncc78)cn6)C5)cn4)cc3C2=O)C(=O)N1 (some centres unmarked) [Compound 173, 5-(2-((3-(5-((1r,3r)-3-((5-(5H-pyrido[4,3-b]indol-7-yl)pyridin-2-yl)oxy)cyclobutoxy)pyridin-2-yl)prop-2-yn-1-yl)oxy)ethoxy)-2-(2,6-dioxopiperidin-3-yl)isoindoline-1,3-dione], the “Degradation activity (tau protein remaining; highest amount of degradation observed at any dosage)” value is reported as “A (≤50% tau protein remaining after 72 hours of incubation with the test compound)”. With Cn1c2ccncc2c2ccc(-c3ccc(OC4CN(C(=O)C56CC(COCCCCCOc7ccc8c(c7)C(=O)N(C7CCC(=O)NC7=O)C8=O)(C5)C6)C4)nc3)cc21 (centres unmarked) [Compound 175, 2-(2,6-dioxopiperidin-3-yl)-5-((5-((3-(3-((5-(5-methyl-5H-pyrido[4,3-b]indol-7-yl)pyridin-2-yl)oxy)azetidine-1-carbonyl)bicyclo[1.1.1]pentan-1-yl)methoxy)pentyl)oxy)isoindoline-1,3-dione] the “Degradation activity (tau protein remaining; highest amount of degradation observed at any dosage)” value was “C (>80% tau protein remaining after 72 hours of incubation with the test compound)”. With Cn1c2ccncc2c2c(F)c(F)c(-c3ccc(O[C@H]4C[C@H](OCCCOCCCOC5CN(c6ccc7c(c6)C(=O)N(C6CCC(=O)NC6=O)C7=O)C5)C4)nc3)cc21 (some centres unmarked) [Compound 176, 5-(3-(3-(3-((1r,3r)-3-((5-(8,9-difluoro-5-methyl-5H-pyrido[4,3-b]indol-7-yl)pyridin-2-yl)oxy)cyclobutoxy)propoxy)propoxy)azetidin-1-yl)-2-(2,6-dioxopiperidin-3-yl)isoindoline-1,3-dione] the “Degradation activity (tau protein remaining; highest amount of degradation observed at any dosage)” value was “C (>80% tau protein remaining after 72 hours of incubation with the test compound)”. Cn1c2ccncc2c2ccc(-c3ccc(O[C@H]4C[C@H](OCCCOCCCOC5CN(c6ccc7c(c6)CN(C6CCC(=O)NC6=O)C7=O)C5)C4)nc3)cc21 (some centres unmarked) [Compound 177, 3-(5-(3-(3-(3-((1r,3r)-3-((5-(5-methyl-5H-pyrido[4,3-b]indol-7-yl)pyridin-2-yl)oxy)cyclobutoxy)propoxy)propoxy)azetidin-1-yl)-1-oxoisoindolin-2-yl)piperidine-2,6-dione] was tested, and the “Degradation activity (tau protein remaining; highest amount of degradation observed at any dosage)” value was “A (≤50% tau protein remaining after 72 hours of incubation with the test compound)”. In the case of Cn1c2ccncc2c2ccc(-c3ccc(O[C@H]4C[C@H](OCCCCCCOCC5CN(c6ccc7c(c6)C(=O)N(C6CCC(=O)NC6=O)C7=O)C5)C4)nc3)cc21 (some centres unmarked) [Compound 178, 2-(2,6-dioxopiperidin-3-yl)-5-(3-(((6-((1r,3r)-3-((5-(5-methyl-5H-pyrido[4,3-b]indol-7-yl)pyridin-2-yl)oxy)cyclobutoxy)hexyl)oxy)methyl)azetidin-1-yl)isoindoline-1,3-dione], the “Degradation activity (tau protein remaining; highest amount of degradation observed at any dosage)” value is reported as “A (≤50% tau protein remaining after 72 hours of incubation with the test compound)”. With Cn1c2ccncc2c2ccc(-c3ccc(O[C@H]4C[C@H](Oc5ccc(C#CCOCCOc6ccc7c(c6)C(=O)N(C6CCC(=O)NC6=O)C7=O)nc5)C4)nc3)cc21 (some centres unmarked) [Compound 179, 2-(2,6-dioxopiperidin-3-yl)-5-(2-((3-(5-((1r,3r)-3-((5-(5-methyl-5H-pyrido[4,3-b]indol-7-yl)pyridin-2-yl)oxy)cyclobutoxy)pyridin-2-yl)prop-2-yn-1-yl)oxy)ethoxy)isoindoline-1,3-dione] the “Degradation activity (tau protein remaining; highest amount of degradation observed at any dosage)” value was “A (≤50% tau protein remaining after 72 hours of incubation with the test compound)”. For O=C1CCC(N2Cc3cc(OCC#Cc4ccc(O[C@H]5C[C@H](Oc6ccc(-c7ccc8c(c7)[nH]c7ccncc78)cn6)C5)cn4)ccc3C2=O)C(=O)N1 (some centres unmarked) [Compound 180, 3-(5-((3-(5-((1r,3r)-3-((5-(5H-pyrido[4,3-b]indol-7-yl)pyridin-2-yl)oxy)cyclobutoxy)pyridin-2-yl)prop-2-yn-1-yl)oxy)-1-oxoisoindolin-2-yl)piperidine-2,6-dione], the “Degradation activity (tau protein remaining; highest amount of degradation observed at any dosage)” value was “A (≤50% tau protein remaining after 72 hours of incubation with the test compound)”. Cn1c2ccncc2c2ccc(-c3ccc(O[C@H]4C[C@H](OCCCCCOCCC5CN(c6ccc7c(c6)C(=O)N(C6CCC(=O)NC6=O)C7=O)C5)C4)nc3)cc21 (some centres unmarked) [Compound 181, 2-(2,6-dioxopiperidin-3-yl)-5-(3-(2-((5-((1r,3r)-3-((5-(5-methyl-5H-pyrido[4,3-b]indol-7-yl)pyridin-2-yl)oxy)cyclobutoxy)pentyl)oxy)ethyl)azetidin-1-yl)isoindoline-1,3-dione] was tested, and the “Degradation activity (tau protein remaining; highest amount of degradation observed at any dosage)” value was “B (≤80% and >50% tau protein remaining after 72 hours of incubation with the test compound)”. With O=C1CCC(N2C(=O)c3ccc(N4CC(OCCCOCCCO[C@H]5C[C@H](Oc6ccc(-c7ccc8c(c7)[nH]c7ccncc78)cn6)C5)C4)cc3C2=O)C(=O)N1 (some centres unmarked) [Compound 182, 5-(3-(3-(3-((1r,3r)-3-((5-(5H-pyrido[4,3-b]indol-7-yl)pyridin-2-yl)oxy)cyclobutoxy)propoxy)propoxy)azetidin-1-yl)-2-(2,6-dioxopiperidin-3-yl)isoindoline-1,3-dione] the “Degradation activity (tau protein remaining; highest amount of degradation observed at any dosage)” value was “A (≤50% tau protein remaining after 72 hours of incubation with the test compound)”. O=C1CCC(N2C(=O)c3ccc(OCC#Cc4ccc(O[C@H]5C[C@@H](Oc6ccc(-c7ccc8c(c7)[nH]c7ccncc78)cn6)C5)cn4)cc3C2=O)C(=O)N1 (some centres unmarked) [Compound 183, 5-((3-(5-((1s,3 s)-3-((5-(5H-pyrido[4,3-b]indol-7-yl)pyridin-2-yl)oxy)cyclobutoxy)pyridin-2-yl)prop-2-yn-1-yl)oxy)-2-(2,6-dioxopiperidin-3-yl)isoindoline-1,3-dione] was tested, and the “Degradation activity (tau protein remaining; highest amount of degradation observed at any dosage)” value was “A (≤50% tau protein remaining after 72 hours of incubation with the test compound)”. For Cn1c2ccncc2c2ccc(-c3ccc(OC4CN(C(=O)C56CC(CCCCCCCOc7ccc8c(c7)C(=O)N(C7CCC(=O)NC7=O)C8=O)(C5)C6)C4)nc3)cc21 (centres unmarked) [Compound 184, 2-(2,6-dioxopiperidin-3-yl)-5-((7-(3-(3-((5-(5-methyl-5H-pyrido[4,3-b]indol-7-yl)pyridin-2-yl)oxy)azetidine-1-carbonyl)bicyclo[1.1.1]pentan-1-yl)heptyl)oxy)isoindoline-1,3-dione], the “Degradation activity (tau protein remaining; highest amount of degradation observed at any dosage)” value was “A (≤50% tau protein remaining after 72 hours of incubation with the test compound)”. For Cc1ncsc1-c1ccc(CNC(=O)[C@@H]2C[C@@H](O)CN2C(=O)[C@H](C(C)C)N2Cc3ccccc3C2=O)c(OCCOc2ccc(-c3ccc4c(c3)[nH]c3ccncc34)cn2)c1 [Compound 185, (2S,4R)—N-(2-(2-((5-(5H-pyrido[4,3-b]indol-7-yl)pyridin-2-yl)oxy)ethoxy)-4-(4-methylthiazol-5-yl)benzyl)-4-hydroxy-1-((S)-3-methyl-2-(1-oxoisoindolin-2-yl)butanoyl)pyrrolidine-2-carboxamide], the “Degradation activity (tau protein remaining; highest amount of degradation observed at any dosage)” value was “C (>80% tau protein remaining after 72 hours of incubation with the test compound)”.
